Measurements published in patent US10894798B2, “Substituted dihydropyrrolopyrazole derivative” (UBE INDUSTRIES, LTD., priority 2015, dated 2021).

Experiments:
[1] = tested on: human large intestine cancer cell line (HCT-116); assay: Human large intestine cancer (HCT-116) cell growth inhibition test; type: cell-based; conditions: HCT-116 (row of Table 50), read-out: GI50 value (concentration necessary for inhibiting 50% of cell growth)
Method in brief: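 HCT-116 cells were seeded at 0.5 to 2.0×10^3 cells/well in McCoy's 5A with 10% FBS and dosed with compound at 0.1% final DMSO after overnight culture. Growth was measured by sulforhodamine B absorbance after 3 days. GI50 was calculated from the inhibition rate at each concentration.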

[2] = tested on: breast cancer cell line BT-549; assay: Various human cancer cell growth inhibition test: BT-549; type: cell-based; conditions: ATPlite, read-out: GI50 value (concentration necessary for inhibiting 50% of cell growth)
Excerpt: (§1) A breast cancer cell line BT-549 (obtained from American Type Culture Collection (ATCC)), a uterus cancer cell line C-33A (obtained from ATCC), an ovary cancer cell line PA-1 (obtained from ATCC), a large-cell lung cancer cell line NCI-H460 (obtained from ATCC), a small-cell lung cancer cell line NCI-H82 (obtained from ATCC), a kidney cancer cell line ACHN (obtained from ATCC), a pancreatic cancer cell line BxPC-3 (obtained from ATCC), a malignant melanoma cell line A375 (obtained from ATCC), a throat cancer cell line FaDu (obtained from ATCC), a medulloblastoma cell line Daoy (obtained from ATCC), a cutaneous epithelioid sarcoma cell line VA-ES-BJ (obtained from ATCC), a rhabdomyosarcoma cell line A-204 (obtained from ATCC), a prostate cancer cell line DU145 (obtained from ATCC), a bladder cancer cell line T24 (obtained from ATCC), a lymphoma cell line SR (obtained from ATCC), a neuroblastoma cell line SH-SY5Y (obtained from DS Pharma Biomedical Co., Ltd.), a liver cancer cell line HepG2 (obtained from DS Pharma Biomedical Co., Ltd.), a stomach cancer cell line HGC-27 (obtained from DS Pharma Biomedical Co., Ltd.), and a multiple myeloma cell line NCI-H929 (obtained from DS Pharma Biomedical Co., Ltd.) were used as human cancer cell lines.
(§2) Each cell line was cultured in a cell culture medium recommended by ATCC or DS Pharma Biomedical Co., Ltd. and inoculated at 0.3 to 5.0×10^3 cells/well to a 96-well plate. The cells were cultured overnight in a carbon dioxide incubator of 37° C. containing 5% carbon dioxide. The medium was replaced with a fresh medium on the next day, then replaced with a mixed solution of a DMSO solution of a test compound with varying concentrations and a culture medium (final DMSO concentration: 0.1%), and left standing in a carbon dioxide incubator (day 0). IV-361, IV-379, IV-3, IV-215, IV-299, IV-669, IV-1049, and palbociclib (for comparison) were used as test compounds. For a control group, DMSO was added instead of the DMSO solution of the test compound to a cell culture medium (final DMSO concentration: 0.1%).
(§3) After culture for a predetermined period, the ATP activity of BT-549, C-33A, PA-1, NCI-H460, NCI-H82, ACHN, BxPC-3, A375, FaDu, Daoy, VA-ES-BJ, A-204, DU145, T24, and SR was measured by using ATPlite (manufactured by PerkinElmer, Inc.). The ATP activity of SH-SY5Y, HepG2, HGC-27, and NCI-H929 was measured by using CellTiter-Glo (manufactured by Promega Corp.).
(§4) The rate of inhibition of cell growth (%) was calculated according to the expression given below. Specifically, in the case where the difference between the ATP activity before culture (day 0) and the ATP activity after culture in the test compound-administered group is the same as the difference between the ATP activity before culture (day 0) and the ATP activity after culture in the control group, the rate of inhibition of cell growth is 0%. Rate of inhibition of cell growth=(1−((ATP activity of the test compound-administered group after culture)−(ATP activity of the test compound-administered group on day 0))/((ATP activity of the control group after culture)−(ATP activity of the control group on day 0)))×100
(§5) The concentration of the test compound necessary for inhibiting 50% of cell growth (GI50 value) was calculated by using EXSUS (version 8.1.0, manufactured by CAC Exicare Corp.).

[3] = tested on: uterus cancer cell line C-33A; assay: Various human cancer cell growth inhibition test: C-33A; type: cell-based; conditions: ATPlite, read-out: GI50 value (concentration necessary for inhibiting 50% of cell growth)
Excerpt: as §1, §2, §3, §4, §5

[4] = tested on: ovary cancer cell line PA-1; assay: Various human cancer cell growth inhibition test: PA-1; type: cell-based; conditions: ATPlite, read-out: GI50 value (concentration necessary for inhibiting 50% of cell growth)
Excerpt: as §1, §2, §3, §4, §5

[5] = tested on: large-cell lung cancer cell line NCI-H460; assay: Various human cancer cell growth inhibition test: NCI-H460; type: cell-based; conditions: ATPlite, read-out: GI50 value (concentration necessary for inhibiting 50% of cell growth)
Excerpt: as §1, §2, §3, §4, §5

[6] = tested on: small-cell lung cancer cell line NCI-H82; assay: Various human cancer cell growth inhibition test: NCI-H82; type: cell-based; conditions: ATPlite, read-out: GI50 value (concentration necessary for inhibiting 50% of cell growth)
Excerpt: as §1, §2, §3, §4, §5

[7] = tested on: kidney cancer cell line ACHN; assay: Various human cancer cell growth inhibition test: ACHN; type: cell-based; conditions: ATPlite, read-out: GI50 value (concentration necessary for inhibiting 50% of cell growth)
Excerpt: as §1, §2, §3, §4, §5

[8] = tested on: pancreatic cancer cell line BxPC-3; assay: Various human cancer cell growth inhibition test: BxPC-3; type: cell-based; conditions: ATPlite, read-out: GI50 value (concentration necessary for inhibiting 50% of cell growth)
Excerpt: as §1, §2, §3, §4, §5

[9] = tested on: malignant melanoma cell line A375; assay: Various human cancer cell growth inhibition test: A375; type: cell-based; conditions: A-375, ATPlite, read-out: GI50 value (concentration necessary for inhibiting 50% of cell growth)
Excerpt: as §1, §2, §3, §4, §5

[10] = tested on: throat cancer cell line FaDu; assay: Various human cancer cell growth inhibition test: FaDu; type: cell-based; conditions: ATPlite, read-out: GI50 value (concentration necessary for inhibiting 50% of cell growth)
Excerpt: as §1, §2, §3, §4, §5

[11] = tested on: rhabdomyosarcoma cell line A-204; assay: Various human cancer cell growth inhibition test: A-204; type: cell-based; conditions: A204, ATPlite, read-out: GI50 value (concentration necessary for inhibiting 50% of cell growth)
Excerpt: as §1, §2, §3, §4, §5

lymphoma cell line SR = assay: Various human cancer cell growth inhibition test: SR; type: cell-based; conditions: ATPlite, read-out: GI50 value (concentration necessary for inhibiting 50% of cell growth)
Excerpt: as §1, §2, §3, §4, §5

[12] = tested on: human large intestine cancer cell line HCT-116; assay: In vitro cell growth inhibitory activity against human large intestine cancer line by combined use with chemotherapeutic; type: cell-based; conditions: HCT-116, 3 days, single-agent treatment
Method: A human large intestine cancer cell line HCT-116 (obtained from DS Pharma Biomedical Co., Ltd.) was cultured in a McCoy's 5A medium (manufactured by Thermo Fisher Scientific, Inc.) containing 10% fetal bovine serum (FBS) (manufactured by Thermo Fisher Scientific, Inc.) and 1% penicillin/streptomycin/amphotericin B (manufactured by Thermo Fisher Scientific, Inc.) and inoculated at 0.5 to 2.0×10^3 cells/well to a 96-well plate. The cells were cultured overnight in a carbon dioxide incubator of 37° C. containing 5% carbon dioxide. The medium was replaced with a fresh medium on the next day, and then, a mixed solution of a DMSO solution of a test compound (IV-361, 5-FU or SN-38) with varying concentrations and a cell culture medium (final DMSO concentration: 0.2%) was added thereto. The concentration of the test compound was 10 nM, the concentration of 5-FU (manufactured by Wako Pure Chemical Industries, Ltd.) was 1000 nM, and the concentration of SN-38 (manufactured by Tocris Bioscience) was adjusted to 1 nM to carry out the test. For a control group, a mixed solution of DMSO and a cell culture medium (final DMSO concentration: 0.2%) was used instead of the DMSO solution of the test compound.
After the addition of the DMSO solution of the test compound, the cells were cultured for 3 days in a carbon dioxide incubator. Then, the absorbance (measurement wavelength: 565 nm) of the medium in each group was measured by using In Vitro Toxicology Assay Kit Sulforhodamine B based (manufactured by Sigma-Aldrich Co. LLC.).
The rate of inhibition of growth (%) was calculated according to the expression given below. Specifically, in the case where the difference between the average absorbance before culture (day 0) and the average absorbance after culture in the test compound-administered group is the same as the difference between the average absorbance before culture (day 0) and the average absorbance after culture in the control group, the rate of inhibition of cell growth is 0%. Rate of inhibition of growth=(1−((Average absorbance of the test compound-administered group after culture)−(Average absorbance of the test compound-administered group on day 0))/((Average absorbance of the control group after culture)−(Average absorbance of the control group on day 0)))×100

[13] = tested on: human large intestine cancer cell line (HCT-116) tumor; assay: In vivo tumor growth inhibition test for human large intestine cancer cell line by combined use with chemotherapeutic; conditions: alone
Method: The prepared cell suspension was subcutaneously injected at 0.1 mL/mouse to the right abdomens of female BALB nude mice (supplied by Charles River Laboratories Japan, Inc.).
Individuals whose tumor volume was within the range of 50 to 200 mm^3 were selected and grouped such that the tumor volume was almost equivalent. After the grouping, a test compound or only a solvent was administered in a repeated manner to the mice of each group as follows:
Single-agent administration group:
Control group: solvent (administered once a day)
5-FU, oxaliplatin, and irinotecan were intraperitoneally administered (5 mL/kg).
After a lapse of a predetermined period, the body weights of the mice of each group and the long diameter and short diameter of tumor were measured, and the tumor volume of the test compound-administered group with respect to the tumor volume of the control group was calculated as the rate of suppression of tumor volume (%).

Q: What does the source list for `CC(=O)c1c(C)c2cnc(Nc3ccc(N4CCNCC4)cn3)nc2n(C2CCCC2)c1=O` [Palbociclib, palbociclib, reference compound]?
A: GI50 [1]: 300 to 1000 nM; GI50 [2]: ≥ 1000 nM; GI50 [3]: ≥ 1000 nM; GI50 [4]: < 300 nM; GI50 [5]: < 300 nM; GI50 [6]: ≥ 1000 nM; GI50 [7]: < 300 nM; GI50 [8]: < 300 nM; GI50 [9]: < 300 nM; GI50 [10]: ≥ 1000 nM; GI50 [11]: ≥ 1000 nM; GI50 (lymphoma cell line SR): < 300 nM

Q: With `O=c1[nH]cc(F)c(=O)[nH]1` [5-FU, 5-Fluorouracil, reference compound] as the molecule, how does the inhibition at 1 µM ([12]; Homo sapiens, 72 h, 5-FU 1000 nM, read-out: Rate of inhibition of growth (%)) read?
A: The inhibition at 1 µM was 25%.

Q: What about the “Rate of suppression of tumor volume” value ([13]; Table 52, 5-FU 15 mg/kg/day intraperitoneal) of the same molecule?
A: Its value is 21%.

Q: `CCc1c2c(nc3ccc(O)cc13)-c1cc3c(c(=O)n1C2)COC(=O)[C@]3(O)CC` [SN-38, reference compound] was tested. Which “Rate of inhibition of growth (%)” value ([12]; SN-38 1 nM) did it give?
A: Its value is 12%.

Q: For `O=C1[O][Pt]2([NH][C@@H]3CCCC[C@H]3[NH]2)[O]C1=O` [Oxaliplatin, oxaliplatin, reference compound], which “Rate of suppression of tumor volume” value ([13]; Table 53, oxaliplatin 3 mg/kg/day intraperitoneal) is on record?
A: The value was 44%.
